The record followed here is PMC5719402, “Protein-Structure Assisted Optimization of 4,5-Dihydroxypyrimidine-6-Carboxamide Inhibitors of Influenza Virus Endonuclease” (Scientific Reports, 2017).

Molecules are shown by their SMILES.

One test relates to influenza virus A/Puerto Rico/8/34 (H1N1). Nature of the test: microbe, parasite or virus in culture. It is filed as cell-based. The conditions noted are these: H1N1, MDCK, read-out: plaque IC50.
Turning to `O=C(NCCOc1ccccc1)c1nc([C@@H]2CCCN2C(=O)CSc2ccccc2Cl)[nH]c(=O)c1O` [Compound 9k], the IC50 (as a rule, the concentration at which inhibition is half-maximal) was 7200 nM. As for `O=C(NCCOc1ccccc1)c1nc([C@@H]2CCCN2C(=O)CCc2ccccc2Cl)[nH]c(=O)c1O` [Compound 9b], the concentration for half-maximal inhibition (IC50) worked out at 6600 nM. Same read-out and setting: then `COc1ccc(S(=O)(=O)CCNC(=O)c2nc([C@@H]3CCCN3C(=O)CSc3ccccc3Cl)[nH]c(=O)c2O)cc1` [Compound 10g], with 9100 nM.

In another test the target is wild type PAN protein (PA endonuclease domain) (Influenza A virus, UniProt C3W5S0). The test is described as follows: biochemical. The test is classed as binding. The settings on record: FP Ki.
`O=C(NCc1cccc(C(F)(F)F)c1)c1nc([C@@H]2CCCN2C(=O)c2c(Cl)cncc2Cl)[nH]c(=O)c1O` [Compound 8a]: the inhibitory constant (Ki) – broadly, the dissociation constant of the complex between target and ligand, obtained from inhibition or displacement – amounted to 160 ± 40 nM. Same read-out and setting: then `O=C(NCCc1cccc(C(F)(F)F)c1)c1nc([C@@H]2CCCN2C(=O)c2c(Cl)cncc2Cl)[nH]c(=O)c1O` [Compound 8c], with 100 ± 30 nM; and `O=C(NCCOc1ccccc1)c1nc([C@@H]2CCCN2C(=O)CSc2ccccc2F)[nH]c(=O)c1O` [Compound 9m], with 240 ± 30 nM. In turn, `Cn1c([C@@H]2CCCN2C(=O)c2c(Cl)cncc2Cl)nc(C(=O)NC2Cc3ccccc3C2)c(O)c1=O` [Compound 8g] came in with a Ki of 1700 ± 100 nM. Same read-out and setting: then `Cn1c([C@@H]2CCCN2C(=O)c2c(Cl)cncc2Cl)nc(C(=O)NCCc2ccccc2)c(O)c1=O` [Compound 8b], with 70 ± 20 nM; and `O=C(NCCOc1ccccc1)c1nc([C@@H]2CCCN2C(=O)COc2ccccc2F)[nH]c(=O)c1O` [Compound 9h], with 440 ± 30 nM; and `O=C(NCCSc1ccccc1)c1nc([C@@H]2CCCN2C(=O)COc2ccccc2Cl)[nH]c(=O)c1O` [Compound 10a], with 560 ± 20 nM. `COc1ccc(S(=O)(=O)CCNC(=O)c2nc([C@@H]3CCCN3C(=O)COc3ccccc3Cl)[nH]c(=O)c2O)cc1` [Compound 10f] displayed a Ki of 38 ± 9 nM. Same read-out and setting: then `O=C(NCCc1ccccc1)c1nc([C@@H]2CCCN2C(=O)CSc2ccccc2Cl)[nH]c(=O)c1O` [Compound 9i], with 290 ± 40 nM; and `O=C(NCCOc1ccccc1)c1nc([C@@H]2CCCN2C(=O)c2c(Cl)cncc2Cl)[nH]c(=O)c1O` [Compound 8d], with 50 ± 20 nM; and `O=C(NCCc1ccccc1)c1nc([C@@H]2CCCN2C(=O)CCc2ccccc2F)[nH]c(=O)c1O` [Compound 9c], with 3700 ± 800 nM. On the same count and under the same terms, then `O=C(NC1Cc2ccccc2C1)c1nc([C@@H]2CCCN2C(=O)COc2ccccc2Cl)[nH]c(=O)c1O` [Compound 10h], with 470 ± 70 nM. On the same count and under the same terms, then `O=C(NCc1cc2ccccc2o1)c1nc([C@@H]2CCCN2C(=O)CSc2ccccc2Cl)[nH]c(=O)c1O` [Compound 10l], with 1000 ± 200 nM. The compound `O=C(NCCS(=O)(=O)c1ccccc1)c1nc([C@@H]2CCCN2C(=O)COc2ccccc2Cl)[nH]c(=O)c1O` [Compound 10d] came in with a Ki of 46 ± 1 nM. On the same count and under the same terms, the result for `O=C(NCCc1ccccc1)c1nc([C@@H]2CCCN2C(=O)c2ccnc(Cl)c2)[nH]c(=O)c1O` [Compound 7e] reads 17500 ± 1100 nM; that for `O=C(NCCc1ccccc1)c1nc([C@@H]2CCCN2C(=O)CCc2ccccc2Cl)[nH]c(=O)c1O` [Compound 9a], 1200 ± 200 nM.

The compound `O=C(NCC[S+]([O-])c1ccccc1)c1nc([C@@H]2CCCN2C(=O)COc2ccccc2Cl)[nH]c(=O)c1O` (stereo partly shown) [Compound 10c] came in with a Ki of 200 ± 30 nM. On the same count and under the same terms, then `O=C(NCC1Cc2ccccc2C1)c1nc([C@@H]2CCCN2C(=O)c2c(Cl)cncc2Cl)[nH]c(=O)c1O` [Compound 8h], with 100 ± 30 nM. `O=C(NCCOc1ccccc1)c1nc([C@@H]2CCCN2C(=O)CCc2ccccc2F)[nH]c(=O)c1O` [Compound 9d] yielded a Ki of 500 ± 100 nM. On the same count and under the same terms, then `O=C(NCCc1ccccc1)c1nc([C@@H]2CCCN2C(=O)c2cc(Cl)ncc2Cl)[nH]c(=O)c1O` [Compound 7d], with 100 ± 20 nM; and `COCCNC(=O)c1nc([C@@H]2CCCN2C(=O)COc2ccccc2)[nH]c(=O)c1O` [Compound 6e], with 1600 nM. As for `O=C(NCCc1ccccc1)c1nc([C@@H]2CCCN2C(=O)CSc2ccccc2F)[nH]c(=O)c1O` [Compound 9l], the Ki came out at 1200 ± 100 nM. With `O=C(NCCc1ccccc1)c1nc([C@@H]2CCCN2C(=O)COc2ccccc2F)[nH]c(=O)c1O` [Compound 9g], the affinity corresponds to a Ki of 1300 ± 400 nM. In the case of `O=C(NCCc1ccncc1)c1nc([C@@H]2CCCN2C(=O)COc2ccccc2F)[nH]c(=O)c1O` [Compound 10n], affinity was put at a Ki of 256 ± 7 nM. Same read-out and setting: the result for `O=C(NCCc1ccccc1)c1nc([C@@H]2CCCN2C(=O)C[S+]([O-])c2ccccc2Cl)[nH]c(=O)c1O` (stereo partly shown) [Compound 9j] reads 400 ± 70 nM.

The test is the same for the next values; noted with them: WT FP Ki.
`O=C(NCCOc1ccccc1)c1nc([C@@H]2CCCN2C(=O)COc2ccccc2Cl)[nH]c(=O)c1O` [Compound 9f] yielded an inhibitory constant (Ki) of 500 ± 200 nM. Still for that read-out and setting: the result for `O=C(NCCc1ccccn1)c1nc([C@@H]2CCCN2C(=O)COc2ccccc2F)[nH]c(=O)c1O` [Compound 10m] reads 400 ± 200 nM.

Staying with this test, now noted: read-out: WT FP Ki.
With `O=C(O)C(=O)CC(=O)c1ccccc1` [DPBA, reference compound], the Ki is 3700 ± 500 nM.
